Counter-ions that a name gives are not always drawn.
Assays:
h-NK1 receptors = biological target: T1, h-NK1 receptors (Homo sapiens, UniProt P25103); assay: Evaluation of NK1 antagonist transport efficiency to the central nervous system using a h-NK1 receptor binding assay; conditions: 5 min, brain extract of male SD rats 5 min after i.v. injection of test compound, CHO cell membranes expressing h-NK1, read-out: inhibition rate of 125I-BH-Substance P binding to h-NK1 receptors
T1 construct: expressed in transfected cells; host or cells: CHO cells (permanent expression), crude cell membranes
T1 sequence (P25103 whole entry): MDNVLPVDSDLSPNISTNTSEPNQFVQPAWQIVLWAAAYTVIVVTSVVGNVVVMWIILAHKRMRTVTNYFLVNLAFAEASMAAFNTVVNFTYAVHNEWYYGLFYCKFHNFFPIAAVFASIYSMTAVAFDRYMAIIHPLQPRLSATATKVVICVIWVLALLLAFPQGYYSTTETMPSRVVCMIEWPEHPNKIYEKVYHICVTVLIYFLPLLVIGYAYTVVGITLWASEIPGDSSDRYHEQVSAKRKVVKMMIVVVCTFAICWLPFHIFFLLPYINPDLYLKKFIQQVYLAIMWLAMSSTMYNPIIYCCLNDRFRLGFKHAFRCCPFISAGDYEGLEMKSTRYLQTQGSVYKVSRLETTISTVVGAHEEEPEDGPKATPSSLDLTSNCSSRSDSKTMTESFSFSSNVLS
Experimental: A. Evaluation of NK1 Antagonist Transport Efficiency to the Cental Nervous System Using a h-NK1 Receptor Binding Assay
(1) Administration of Test Compound and Extraction of the Compound From Brain
Male SD rats were given an i.v. injection of a solution containing a test compound (1 mg/kg). 5 Min later the animals were anesthetized by ether, bled and perfused through the aorta ascendens with 20 ml of saline. The brain was rapidly removed, weighed and homogenized in 4 vol. ice-cold distilled water by using Polytoron (KINEMATICA). To extract the test compound, 500 μl of the homogenate, 100 μl of methanol, 500 μl of 0.1 N NaOH and 4 ml of ethyl acetate were mixed by shaking for 10 min at room temperature. The organic phase (2.5 ml) was recovered by centrifugation at 3,000 rpm for 10 min, dried and dissolved in dimethyl sulfoxide.
(2) h-NK1 Receptor Binding Assay
(a) Crude CHO Cell Membrane Preparation
CHO cells permanently expressing h-NK1 receptors were harvested and homogenized with a Dounce homogenizer at 4° C. in a buffer (0.25 M sucrose, 25 mM Tris-HCl (pH 7.4), 10 mM MgCl2, 1 mM EDTA, 5 μg/ml p-APMSF). The homogenate was centrifuged (500×g, 10 min), and the pellet was resuspended in the same buffer, homogenized, and centrifuged. The two supernatants were combined and centrifuged (100,000×g, 1 hour). The crude cell membranes thus isolated were resuspended in a buffer (25 MM Tris-HCl (pH 7.4), 10 mM MgCl2, 1 mM EDTA, 5 μg/ml p-APMSF) and stored at −80° C. until use.
(b) ^125I-BH-Substance P Binding to the Prepared Membrane
Cell membranes (6 μg/ml) were incubated with ^125I-BH-Substance P (0.1 nM) with or without the extracted compounds in 0.25 ml of a medium (50 mM Tris-HCl (pH 7.4), 5 mM MnCl2, 20 μg/ml chymrostatin, 40 μg/ml bacitracin, 4 μg/ml leupeptin, 5 μg/ml p-APMSF, 200 μg/ml BSA) at 22° C. for 90 min. At the end of the incubation period, the contents were quickly filtered through a Blue Mat 11740 filter (pretreated with 0.1% polyethylenimine for 3 hours prior to use) by using SKATRON Cell Harvester. The filter was then washed with a washing buffer (50 mM Tris-HCl (pH 7.4), 5 mM MnCl2) . The radioactivity was counted by using an auto gamma counter (Packard RIASTAR 5420A). All data presented are specific binding defined as that displaceable by 3 μM unlabeled Substance P.

Compound | melting point | inhibition at 1 mg/kg (h-NK1 receptors) [%]
Cl.O=C(CN1CCN(C(=O)c2cc(C(F)(F)F)cc(C(F)(F)F)c2)[C@H](Cc2c[nH]c3ccccc23)C1)N1CCN(c2ccc(F)cc2)CC1 | 183 °C (dec.) | –
Cl.O=C(CN1CCN(C(=O)c2cc(C(F)(F)F)cc(C(F)(F)F)c2)[C@H](Cc2c[nH]c3ccccc23)C1)N1CCN(C2CCCC2)CC1 | 270 °C (dec.) | –
Cl.Cl.O=C(c1cc(C(F)(F)F)cc(C(F)(F)F)c1)N1CCN(CCCN2CCOCC2)C[C@H]1Cc1c[nH]c2ccccc12 | 265 °C (dec.) | –
Cl.Cl.O=C(c1cc(C(F)(F)F)cc(C(F)(F)F)c1)N1CCN(CC#CCN2CCOCC2)C[C@H]1Cc1c[nH]c2ccccc12 | 165 to 169 °C | –
Cc1ccc(C[C@@H]2CN(CC#CCN3CCSCC3)CCN2C(=O)c2cc(C(F)(F)F)cc(C(F)(F)F)c2)cc1C.Cl.Cl | 162 to 170 °C | –
Cl.Cl.O=C(c1cc(C(F)(F)F)cc(C(F)(F)F)c1)N1CCN(CCN2CCOCC2)C[C@H]1Cc1c[nH]c2ccccc12 | 170 to 176 °C | –
Cl.Cl.Cl.O=C(c1cc(C(F)(F)F)cc(C(F)(F)F)c1)N1CCN(CCCN2CCN(C3CCCCC3)CC2)C[C@H]1Cc1c[nH]c2ccccc12 | 250 °C (dec.) | –
Cc1ccc(C[C@@H]2CN(Cc3ccc([N+](=O)[O-])cc3)CCN2C(=O)c2cc(C(F)(F)F)cc(C(F)(F)F)c2)cc1C.Cl.Cl | 140 °C (dec.) | –
Cl.O=C(CN1CCN(C(=O)c2cc(C(F)(F)F)cc(C(F)(F)F)c2)[C@H](Cc2c[nH]c3ccccc23)C1)c1cccc(F)c1 | 195 °C (dec.) | –
Cl.Cl.O=C(c1cc(C(F)(F)F)cc(C(F)(F)F)c1)N1CCN(CCCN2CC=CCC2)C[C@H]1Cc1c[nH]c2ccccc12 | > 200 °C | –
Cl.Cl.O=C(c1cc(C(F)(F)F)cc(C(F)(F)F)c1)N1CCN(CCCN2CC3CCC(CC3)C2)C[C@H]1Cc1ccc(Cl)c(Cl)c1 | 150 °C (dec.) | –
Cl.Cl.Cl.O=C(c1cc(C(F)(F)F)cc(C(F)(F)F)c1)N1CCN(CCCN2CCC(N3CCCCC3)CC2)C[C@H]1Cc1ccc(Cl)c(Cl)c1 | > 200 °C | –
Cc1ccc(C[C@@H]2CN(CC#CCN3CCOC(CF)C3)CCN2C(=O)c2cc(C(F)(F)F)cc(C(F)(F)F)c2)cc1C.Cl.Cl (some centres unmarked) | 175 to 180 °C | –
COC[C@@H]1CCCN1CC#CCN1CCN(C(=O)c2cc(C(F)(F)F)cc(C(F)(F)F)c2)[C@H](Cc2ccc(C)c(C)c2)C1.Cl.Cl | 195 to 197 °C | –
COCC1COCCN1CC#CCN1CCN(C(=O)c2cc(C(F)(F)F)cc(C(F)(F)F)c2)[C@H](Cc2ccc(C)c(C)c2)C1.Cl.Cl (some centres unmarked) | 140 to 155 °C | –
Cl.O=C(CN1CCN(C(=O)c2cc(C(F)(F)F)cc(C(F)(F)F)c2)[C@H](Cc2c[nH]c3ccccc23)C1)c1ccc(F)c(F)c1 | 171 °C (dec.) | –
Cc1ccc(C(=O)CN2CCN(C(=O)c3cc(C(F)(F)F)cc(C(F)(F)F)c3)[C@H](Cc3c[nH]c4ccccc34)C2)cc1.Cl | 203 °C (dec.) | –
Cc1ccc(C(=O)CN2CCN(C(=O)c3cc(C(F)(F)F)cc(C(F)(F)F)c3)[C@H](Cc3c[nH]c4ccccc34)C2)cc1C.Cl | 166 °C (dec.) | –
Cc1ccc(C[C@@H]2CN(CC#Cc3cccnc3)CCN2C(=O)c2cc(C(F)(F)F)cc(C(F)(F)F)c2)cc1C.Cl.Cl | 140 to 150 °C | –

Compound | melting point | inhibition at 1 mg/kg (h-NK1 receptors) [%]
Cl.Cl.O=C(c1cc(C(F)(F)F)cc(C(F)(F)F)c1)N1CCN(C/C=C/CN2CCSCC2)C[C@H]1Cc1ccc2ccccc2c1 | > 230 °C | –
Cc1ccc(C[C@@H]2CN(C/C=C/CN3CCSCC3)CCN2C(=O)c2cc(C(F)(F)F)cc(C(F)(F)F)c2)cc1C.Cl.Cl | > 230 °C | –
Cc1ccc(C[C@@H]2CN(C/C=C/CN3CCOCC3(C)C)CCN2C(=O)c2cc(C(F)(F)F)cc(C(F)(F)F)c2)cc1C.Cl.Cl | > 230 °C | –
Cl.Cl.O=C(c1cc(C(F)(F)F)cc(C(F)(F)F)c1)N1CCN(CC#CCN2CCSCC2)C[C@H]1Cc1ccc2ccccc2c1 | 152 to 156 °C | –
Cc1ccc(C[C@@H]2CN(CC#CCN3CCN(C4CCCCC4)CC3)CCN2C(=O)c2cc(C(F)(F)F)cc(C(F)(F)F)c2)cc1C.Cl.Cl.Cl | 175 to 190 °C | –
Cl.Cl.O=C(c1cc(C(F)(F)F)cc(C(F)(F)F)c1)N1CCN(CC#CCN2CCSCC2)C[C@H]1Cc1ccc(C(F)(F)F)cc1 | 173 °C (dec.) | –
Cl.Cl.O=C(c1cc(C(F)(F)F)cc(C(F)(F)F)c1)N1CCN(CC#CCN2CCSCC2)C[C@H]1Cc1cccc2ccccc12 | 191 °C (dec.) | –
Cc1ccc(C[C@@H]2CN(CCCc3cnn(C)c3)CCN2C(=O)c2cc(C(F)(F)F)cc(C(F)(F)F)c2)cc1C.Cl | 163 to 165 °C | –
Cc1ccc(C[C@@H]2CN(CCCc3cccnc3)CCN2C(=O)c2cc(C(F)(F)F)cc(C(F)(F)F)c2)cc1C.Cl.Cl | 163 to 168 °C | –
Cc1ccc(C[C@@H]2CN(Cc3cn(C)cn3)CCN2C(=O)c2cc(C(F)(F)F)cc(C(F)(F)F)c2)cc1C [52-(1), (2R)-1-[3,5-Bis(trifluoromethyl)benzoyl]-2-(3,4-dimethylbenzyl)-4-[(1-methyl-1H-imidazol-4-yl)methyl]piperazine dihydrochloride] | – | > 80
Cc1ccc(C[C@@H]2CN(CCCNN3CCOCC3)CCN2C(=O)c2cc(C(F)(F)F)cc(C(F)(F)F)c2)cc1C [67-(4), (2R)-1-[3,5-Bis(trifluoromethyl)benzoyl]-2-(3,4-dimethylbenzyl)-4-[3-(morpholinoamino)propyl]piperazine dihydrochloride] | – | > 80
Cc1ccc(C[C@@H]2CN(CCCNCc3cccnc3)CCN2C(=O)c2cc(C(F)(F)F)cc(C(F)(F)F)c2)cc1C [82-(1), (2R)-1-[3,5-Bis(trifluoromethyl)benzoyl]-2-(3,4-dimethylbenzyl)-4-[N-(3-pyridylmethyl)-3-aminopropyl]piperazine trihydrochloride] | – | > 80
Cc1ccc(C[C@@H]2CN(C/C=C/CNCc3cccnc3)CCN2C(=O)c2cc(C(F)(F)F)cc(C(F)(F)F)c2)cc1C [82-(5), (2R)-1-[3,5-Bis(trifluoromethyl)benzoyl]-2-(3,4-dimethylbenzyl)-4-[(E)-N-(3-pyridylmethyl)-4-amino-2-butenyl]piperazine trihydrochloride] | – | > 80
O=C(c1cc(C(F)(F)F)cc(C(F)(F)F)c1)N1CCN(CCNCc2cccnc2)C[C@H]1Cc1ccc2ccccc2c1 [82-(7), (2R)-1-[3,5-Bis(trifluoromethyl)benzoyl]-2-(2-naphthylmethyl)-4-[N-(3-pyridylmethyl)-2-aminoethyl]piperazine trihydrochloride] | – | > 80
O=C(c1cc(C(F)(F)F)cc(C(F)(F)F)c1)N1CCN(CCNN2CCOCC2)C[C@H]1Cc1ccc2ccccc2c1 [82-(8), (2R)-1-[3,5-Bis(trifluoromethyl)benzoyl]-2-(2-naphthylmethyl)-4-(N-morpholino-2-aminoethyl) piperazine dihydrochloride] | – | > 80
CN(C)c1ccc(C(=O)CN2CCN(C(=O)c3cc(C(F)(F)F)cc(C(F)(F)F)c3)[C@H](Cc3c[nH]c4ccccc34)C2)cc1 [Example 8, (2R)-1-[3,5-bis (trifluoromethyl)benzoyl]-4-(4-dimethylaminophenylcarbonylmethyl)-2-(1H-indol-3-ylmethyl]piperazine] | 185 °C (dec.) | –
CC(=O)c1cccc(C(=O)N2CCN(C(=O)c3cc(C(F)(F)F)cc(C(F)(F)F)c3)[C@H](Cc3c[nH]c4ccccc34)C2)c1 [Example 16-(1), (2R)-4-(3-Acetylbenzoyl)-1-[3,5-bis(trifluoromethyl)benzoyl]-2-(1H-indol-3-ylmethyl)piperazine] | 186 to 187.5 °C | –
CC(=O)c1ccccc1C(=O)N1CCN(C(=O)c2cc(C(F)(F)F)cc(C(F)(F)F)c2)[C@H](Cc2c[nH]c3ccccc23)C1 [Example 16-(2), (2R)-4-(2-Acetylbenzoyl)-1-[3,5-bis(trifluoromethyl)benzoyl]-2-(1H-indol-3-ylmethyl)piperazine] | 190 to 192 °C | –
O=C(c1cc(C(F)(F)F)cc(C(F)(F)F)c1)N1CCN(CCCC2(c3ccc(F)cc3)OCCO2)C[C@H]1Cc1c[nH]c2ccccc12 [Example 38, (2R)-4-[4,4-ethylenedioxy-4-(4-fluorophenyl)butyl]-1-[3,5-bis (trifluoromethyl)benzoyl]-2-(1H-indol-3-ylmethyl) piperazine] | 145 to 146 °C | –
